After the bases stand the sugars from the 5' end (letter, count) and the backbone: PS all phosphorothioate, else s phosphorothioate and o phosphodiester by linkage. Methylation of C is not given here. e = 2'-O-(2-methoxyethyl) (MOE); k = constrained ethyl (cEt); d = 2'-deoxy (DNA); m = 2'-O-methyl

The data set concerns the target HSD17B13. Particulars: ASO, HepaRG.

Regarding TATGTAATAGGCAGTA (sugars k3 d10 k3, PS), the target mRNA inhibition (1 µM) turned out to be 62%.

Take TATGTCCAGGTTGAGA (sugars k3 d10 k3, PS): where the note is “1 µM”, the target mRNA inhibition was 64%.

TATGTGAAGAGCTGGT (sugars k3 d10 k3, PS): the target mRNA inhibition (1 µM) worked out at 63%.

In turn, “TATGTGATTGAGTTCT (sugars k3 d9 k3 e1, PS)” returned a target mRNA inhibition (1 µM) of 43%.

As to TATGTGATTGAGTTCT (sugars k3 d10 k3, PS), the target mRNA inhibition (1 µM) came out at 28%.

Sequence “TATGUGATTGAGTTCT (sugars k3 d1 m1 d8 k3, PS)” showed a target mRNA inhibition (1 µM) of 21%.

In the case of TATTAAGACAGTTGAG (sugars k3 d10 k3, PS), the target mRNA inhibition (1 µM) came out at 44%.

TATTAATATGACTTGC (sugars k3 d10 k3, PS) gave a target mRNA inhibition (1 µM) of 25%.

Under “1 µM”, TATTAGTTGGCCTGCC (sugars k3 d10 k3, PS) registered a target mRNA inhibition of 14%.

Consider TATTATCAGGACTGAA (sugars k3 d10 k3, PS), for which, under “1 µM”, the target mRNA inhibition was found to be 63%.

TATTATGCACTCTATA (sugars k3 d10 k3, PS) displayed a target mRNA inhibition (1 µM) of 9%.

Consider TATTCACCACGATTGT (sugars k3 d10 k3, PS), for which the target mRNA inhibition (1 µM) was 2%.

“TATTGGTAAGTATTCC (sugars k3 d9 k3 e1, PS)”: the target mRNA inhibition (1 µM) was 48%.

As to TATTGGTAAGTATTCC (sugars k3 d10 k3, PS), for the setting “1 µM”, the target mRNA inhibition stood at 67%.

The sequence TATTTAGGGCAAACCT (sugars k3 d10 k3, PS) returned a target mRNA inhibition (1 µM) of 40%.

Sequence TATTTCTTGCGAGAAA (sugars k3 d10 k3, PS) registered a target mRNA inhibition (1 µM) of 30%.

For the setting “1 µM”, TCAAAATGGTGGCGAG (sugars k3 d10 k3, PS) gave a target mRNA inhibition of 31%.

As for TCAAAGTCAGTATCCC (sugars k3 d10 k3, PS), the target mRNA inhibition runs as follows: (0.02 µM) 5%; (0.078 µM) 19%; (0.313 µM) 48%; (1 µM) 79%; (1.25 µM) 75%; (5 µM) 88%.

On to TCACCTGATTTAGAGA (sugars k3 d10 k3, PS), for which the target mRNA inhibition (1 µM) is 13%.

With “TCACCTTTCATAATGT (sugars k3 d9 k3 e1, PS)”, the target mRNA inhibition (1 µM) was 41%.

With TCATAAAAATCGCTGC (sugars k3 d10 k3, PS), the target mRNA inhibition (1 µM) turned out to be 26%.

Where the note is “1 µM”, TCATAAACATAGGCTT (sugars k3 d10 k3, PS) came in with a target mRNA inhibition of 58%.

“TCATAGTGGACTTCAT (sugars kkdddddddddkekek, PS)” showed a target mRNA inhibition (1 µM) of 48%.

Take TCATTAGGAAAAGTGT (sugars k3 d10 k3, PS): the target mRNA inhibition (1 µM) was 16%.

Turning to TCATTCGAATTTCTTC (sugars k3 d10 k3, PS), the target mRNA inhibition is, setting by setting: (0.02 µM) 16%; (0.078 µM) 31%; (0.313 µM) 54%; (1 µM) 76%; (1.25 µM) 79%; (5 µM) 90%.

In the case of TCCAAAGATGAGAGTC (sugars k3 d10 k3, PS), the target mRNA inhibition (1 µM) turned out to be 17%.

For the sequence TCCAAGTAATTACTTC (sugars k3 d10 k3, PS), the target mRNA inhibition runs as follows: (0.02 µM) 0%; (0.078 µM) 3%; (0.313 µM) 23%; (1 µM) 72%; (1.25 µM) 43%; (5 µM) 67%.

As for TCCACACCGCGCTTAT (sugars k3 d10 k3, PS), where the note is “1 µM”, the target mRNA inhibition came to 32%.

In turn, TCCAGGTTGAGATAAA (sugars k3 d10 k3, PS) registered a target mRNA inhibition (1 µM) of 70%.

In the case of “TCCATAATAATAGCTC (sugars k3 d9 k3 e1, PS)”, the target mRNA inhibition (1 µM) worked out at 66%.

TCCATCATCGATGGAA (sugars k3 d10 k3, PS) gave a target mRNA inhibition (1 µM) of 31%.

Sequence TCCATTATCCTTACTC (sugars k3 d10 k3, PS) gave a target mRNA inhibition (1 µM) of 15%.

The record behind these values is the OligoGym collection.
